Values of other authors, collected in US20180177744A1, “METHOD OF TREATING PAIN AND […] A HYBRID MIXTURE OF S-KETAMINE AND R-KETAMINE” (priority 2016, published 2018).
Read-outs that look alike come from different tables or passages of the source.

Tests used:
[1] = liquid formulation at 30 mg to 50 mg, intranasal (IN) route
[2] = mice; versus esketamine
[3] = in vivo
dopamine transporters = conditions: versus arketamine
[4] = for anaesthetic potency relative to arketamine (R-isomer): clinically, versus arketamine
[5] = not given; remark: listed apart in the source
[6] = tested on: phencyclidine binding sites on the NMDA receptors; conditions: versus arketamine

Sequence of dopamine transporters (Q01959 whole entry): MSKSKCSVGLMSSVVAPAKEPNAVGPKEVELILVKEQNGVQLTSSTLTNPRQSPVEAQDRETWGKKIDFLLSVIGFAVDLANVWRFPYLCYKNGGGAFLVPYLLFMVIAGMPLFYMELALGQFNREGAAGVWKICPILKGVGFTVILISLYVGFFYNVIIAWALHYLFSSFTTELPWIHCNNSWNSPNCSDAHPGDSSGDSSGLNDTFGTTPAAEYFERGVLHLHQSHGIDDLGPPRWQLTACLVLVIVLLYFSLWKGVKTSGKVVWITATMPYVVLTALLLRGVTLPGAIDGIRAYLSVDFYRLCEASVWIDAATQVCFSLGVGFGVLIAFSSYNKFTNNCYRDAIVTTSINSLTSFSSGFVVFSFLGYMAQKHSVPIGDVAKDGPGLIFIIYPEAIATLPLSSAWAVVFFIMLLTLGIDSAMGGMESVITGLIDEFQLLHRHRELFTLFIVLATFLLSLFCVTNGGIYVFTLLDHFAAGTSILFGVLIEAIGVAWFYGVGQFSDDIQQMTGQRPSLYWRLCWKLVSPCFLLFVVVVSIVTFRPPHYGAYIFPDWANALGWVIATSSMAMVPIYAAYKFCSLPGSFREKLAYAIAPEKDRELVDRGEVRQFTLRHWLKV

| SMILES | ability to stop acute and/or breakthrough pain [1] | rapid antidepressant effect [2] | psychotomimetic effects (in vivo) | glucose metabolism in the brain [3] | inhibition of dopamine transporters relative to arketamine (dopamine transporters) | recovery of cerebral functions (after anaesthesia, study persons) | anaesthetic potency relative to arketamine (R-isomer) [4] | anaesthetic potency relative to arketamine (R-isomer) ([4]; listed as S(+)ketamine) | anesthetic potency relative to racemic ketamine ([4]; versus racemic ketamine) | binding to sigma receptors (sigma receptors) | elimination from the human body [5] | affinity for the PCP binding site of the NMDA receptor relative to arketamine ([6]; listed as Esketamine) | affinity for the PCP binding site of the NMDA receptor relative to arketamine ([6]; listed as S(+)ketamine) |
| --- | --- | --- | --- | --- | --- | --- | --- | --- | --- | --- | --- | --- | --- |
| CNC1(c2ccccc2Cl)CCCCC1=O (racemic) [racemic ketamine, 2-(2-chlorphenyl)-2-(methylamino)-cyclohexanone] | stop acute and/or breakthrough pain |  |  |  |  |  |  |  |  |  |  |  |  |
| CN[C@@]1(c2ccccc2Cl)CCCCC1=O [arketamine, R(−)-ketamine] |  | greater and lasted longer than that of esketamine | devoid of psychotomimetic effects | decreases glucose metabolism in the brain |  |  |  |  |  |  |  |  |  |
| CN[C@]1(c2ccccc2Cl)CCCCC1=O [esketamine, S(+)-ketamine] |  |  |  | increases glucose metabolism in the frontal cortex | eight times more | more rapid recovery of cerebral functions | 3-4 times | three to four times | two times | does not bind significantly | more quickly than arketamine (R(−)-ketamine) or racemic ketamine | 3-4 times | three to four times greater |
